Earlier results as cited in PMC12087591 (Drug Design, Development and Therapy, 2025).

Test system: COVID-19
Details: unvaccinated COVID-19 patients

CC(C)(C)[C@H](NC(=O)C(F)(F)F)C(=O)N1C[C@H]2[C@@H]([C@H]1C(=O)N[C@H](C#N)C[C@@H]1CCNC1=O)C2(C)C [nirmatrelvir]
reduction of hospitalization risk: 89%
